Literature values in patent US9907754B2 (VECTURA LIMITED, priority 2013, dated 2018).

What was measured:
[1] = EFSA; no indications of inhalation toxicity or intolerability
[2] = henderson-hasselbalch (1908)

Row | water pick up, % of mass (humidity >70% RH) | moisture pick up (relative humidity as high as 70%) | Structure (SMILES) | tolerable dose [1] | pKa of the sulphur-hydryl group [2]
1 | 10% | less than 1% | OC[C@@H](O)[C@@H](O)[C@H](O)[C@H](O)CO [Mannitol] |  | 
2 |  |  | NCCS(=O)(=O)O [Taurine, 2-aminoethanesulfonic acid] | > 1000 mg/kg/day | 1.49
